The source of these data is ChEMBL document CHEMBL1137707, “First-principle, structure-based prediction of hepatic metabolic clearance values in human” (Eur J Med Chem, 2009).

Structures are written as SMILES.

One data set deals with Hepatocyte. The data set can be described thus: (§1) Hepatic clearance in human hepatocytes in absence of fetal calf serum. The note with it: hepatocytes.
Data set [1] can be described thus: as §1.

As for `CCCc1nn(C)c2c(=O)[nH]c(-c3cc(S(=O)(=O)N4CCN(C)CC4)ccc3OCC)nc12`, in the data set with Hepatocyte, the logCL was found to be 0.7782. As to `O=C1CC2(CCCC2)CC(=O)N1CCCCN1CCN(c2ncccn2)CC1` [BUSPIRONE], in data set [1] (human hepatocytes), the CLhep predicted was 19.2 mL/min/kg. The compound further came in with a logCL in the data set with Hepatocyte of 1.2833. For `Cn1c(=O)c2c(ncn2C)n(C)c1=O` [CAFFEINE], the CLhep predicted in data set [1] (human hepatocytes) is 1.4 mL/min/kg. The logCL in the data set on Hepatocyte stood at 0.1461. Turning to `COc1ccccc1OCCNCC(O)COc1cccc2[nH]c3ccccc3c12` (stereo unspecified) [CARVEDILOL], the CLhep predicted in data set [1] (hepatocytes) is 8.7 mL/min/kg. In the data set with Hepatocyte, this compound gave a logCL of 0.9395.

Consider `CN(C)CCCN1c2ccccc2Sc2ccc(Cl)cc21` [CHLORPROMAZINE], for which, in the data set with Hepatocyte, the CL came to 8.6 mL/min/kg and the logCL is listed as 0.9345.

Take `CN1C(=O)CN=C(c2ccccc2)c2cc(Cl)ccc21` [DIAZEPAM]: the logCL in the data set with Hepatocyte is given as -0.3665. For the compound `O=C(O)Cc1ccccc1Nc1c(Cl)cccc1Cl` [DICLOFENAC], the CLhep predicted in data set [1] (hepatocytes) is 7.33 mL/min/kg. In the data set with Hepatocyte, the logCL came to 0.8651. The matching figures for `O=C(O)c1cc(-c2ccc(F)cc2F)ccc1O` [DIFLUNISAL]: 0.18 mL/min/kg and -0.7447. For `COc1ccc([C@@H]2Sc3ccccc3N(CCN(C)C)C(=O)[C@@H]2OC(C)=O)cc1` [DILTIAZEM], in data set [1] (human hepatocytes), the CLhep predicted was 12.8 mL/min/kg. In addition, the logCL with Hepatocyte is reported as 1.1072.

Consider `CCc1cccc2c3c([nH]c12)C(CC)(CC(=O)O)OCC3` (stereo unspecified) [ETODOLAC], for which the CLhep predicted in data set [1] (human hepatocytes) is 1.31 mL/min/kg. For the same compound, the logCL in the data set on Hepatocyte was determined as 0.1173. `CC(C(=O)O)c1cccc(Oc2ccccc2)c1` (stereo unspecified) [FENOPROFEN] yielded a logCL in the data set with Hepatocyte of 0.2279.

As to `Cc1ccc(C)c(OCCCC(C)(C)C(=O)O)c1` [GEMFIBROZIL], the CLhep predicted in data set [1] (hepatocytes) is 3.09 mL/min/kg. Also, the logCL in the data set on Hepatocyte amounted to 0.49. Regarding `CN1C2CCCC1CC(NC(=O)c1nn(C)c3ccccc13)C2` (stereo unspecified) [GRANISETRON], the CLhep predicted in data set [1] (human hepatocytes) is 11 mL/min/kg. Moreover, the logCL in the data set with Hepatocyte is reported as 1.0414. As for `COc1ccc2c(c1)c(CC(=O)O)c(C)n2C(=O)c1ccc(Cl)cc1` [INDOMETHACIN], the CLhep predicted in data set [1] (human hepatocytes) is 2.24 mL/min/kg. Moreover, the logCL with Hepatocyte is 0.3502. In the data set with Hepatocyte, `CCCCC1=NC2(CCCC2)C(=O)N1Cc1ccc(-c2ccccc2-c2nnn[nH]2)cc1` [IRBESARTAN] registered a CL of 3.85 mL/min/kg and a logCL of 0.5855.

On to `CCN(CC)CC(=O)Nc1c(C)cccc1C` [LIDOCAINE], for which the logCL in the data set on Hepatocyte stood at 1.1761. Regarding `O=C1Nc2ccc(Cl)cc2C(c2ccccc2Cl)=NC1O` (stereo unspecified) [LORAZEPAM], the CLhep predicted in data set [1] (human hepatocytes) is 1.1 mL/min/kg. The compound further came in with a logCL in the data set with Hepatocyte of 0.0414.

Take `C[C@H]1C[C@@H]2[C@H]([C@@H](O)C[C@@]3(C)[C@H]2CC[C@]3(O)C(=O)CO)[C@@]2(C)C=CC(=O)C=C12` [METHYLPREDNISOLONE]: in data set [1] (human hepatocytes), the CLhep predicted was 7.5 mL/min/kg. In the data set with Hepatocyte, this compound registered a logCL of 0.8751. The matching figures for `COCCc1ccc(OCC(O)CNC(C)C)cc1` (stereo unspecified) [METOPROLOL]: 12.2 mL/min/kg and 1.0846.

For `Cc1ncc2n1-c1ccc(Cl)cc1C(c1ccccc1F)=NC2` [MIDAZOLAM], the CLhep predicted in data set [1] (hepatocytes) is 6.6 mL/min/kg. The compound further registered a logCL with Hepatocyte of 0.8195. As to `CC(C)(O)c1ccccc1CC[C@@H](SCC1(CC(=O)O)CC1)c1cccc(/C=C/c2ccc3ccc(Cl)cc3n2)c1` [MONTELUKAST], in data set [1] (human hepatocytes), the CLhep predicted is 1.27 mL/min/kg. In addition, the logCL in the data set with Hepatocyte turned out to be 0.1038. The matching figures for `C=CCN1CC[C@]23c4c5ccc(O)c4O[C@H]2C(=O)CC[C@@]3(O)[C@H]1C5` [NALOXONE]: 19.5 mL/min/kg and 1.29. The matching figures for `Cc1nccn1CC1CCc2c(c3ccccc3n2C)C1=O` (stereo unspecified) [ONDANSETRON]: 5.9 mL/min/kg and 0.7709. Take `CCOc1ccc(NC(C)=O)cc1` [PHENACETIN]: the logCL in the data set on Hepatocyte stood at 1.2833. Consider `C[C@]12C=CC(=O)C=C1CC[C@@H]1[C@@H]2[C@@H](O)C[C@@]2(C)[C@H]1CC[C@]2(O)C(=O)CO` [PREDNISOLONE], for which the CLhep predicted in data set [1] (human hepatocytes) is 8.7 mL/min/kg. This compound registered a logCL in the data set on Hepatocyte of 0.9395. The like results for `CC(C)c1nc(CN(C)C(=O)N[C@H](C(=O)N[C@@H](Cc2ccccc2)C[C@H](O)[C@H](Cc2ccccc2)NC(=O)OCc2cncs2)C(C)C)cs1` [RITONAVIR] were, in that order, 1.2 mL/min/kg and 0.0792. On to `CN1C(C(=O)Nc2ccccn2)=C(O)c2sccc2S1(=O)=O` [TENOXICAM], for which the CLhep predicted in data set [1] (hepatocytes) is 0.073 mL/min/kg. This compound yielded a logCL in the data set on Hepatocyte of -1.1367. In the case of `Cn1c(=O)c2[nH]cnc2n(C)c1=O.O` [THEOPHYLLINE], in data set [1] (human hepatocytes), the CLhep predicted was 0.65 mL/min/kg. The logCL in the data set with Hepatocyte is reported as -0.1871. Turning to `CC(C)(C)NC[C@H](O)COc1nsnc1N1CCOCC1` [TIMOLOL], the CLhep predicted in data set [1] (hepatocytes) is 9.17 mL/min/kg. The same compound showed a logCL with Hepatocyte of 0.9624. The matching figures for `CCCCNC(=O)NS(=O)(=O)c1ccc(C)cc1` [TOLBUTAMIDE]: 0.3 mL/min/kg and -0.5229. On to `Cc1c(C)c2c(c(C)c1O)CCC(C)(COc1ccc(CC3SC(=O)NC3=O)cc1)O2` (stereo unspecified) [TROGLITAZONE], for which, in data set [1] (human hepatocytes), the CLhep predicted is 9 mL/min/kg. For the same compound, the logCL in the data set on Hepatocyte is 0.9542.

In the case of `CC(=O)CC(c1ccccc1)c1c(O)c2ccccc2oc1=O` (stereo unspecified) [WARFARIN], the CLhep predicted in data set [1] (human hepatocytes) is 0.16 mL/min/kg. In addition, the logCL with Hepatocyte is listed as -0.7959. The matching figures for `Cc1cn([C@H]2C[C@H](N=[N+]=[N-])[C@@H](CO)O2)c(=O)[nH]c1=O` [ZIDOVUDINE]: 12.4 mL/min/kg and 1.0934.
